Laboratory results published in patent publication US6569867B2, “Polyketide derivatives” (Kosan Biosciences, Inc., priority 1999, dated 2003).
Values joined by “and” are separate entries in the source; they are usually repeats but may differ in a detail not shown here. Equal values may be shown once. Read-outs that look alike come from different tables or passages of the source.

Assays:
[1] = biological target: T1, FKBP-12 (Homo sapiens, UniProt P62942); test: FKBP-12 binding assay ([3H]FK-506 competition)
T1 construct: purchased Sigma; host or cells: E. coli
Method: Calcineurin (“>95% pure by SDS/PAGE”) was obtained from Calbiochem. Neutravidin® coated strip plates, pre-blocked with SuperBlock® were obtained from Pierce. […] Synthetic RII peptide (^+[…]^-) was obtained from Peptides International (Louisville, […].com). […] ATP, cAMP, the catalytic subunit of protein kinase A, bovine brain calmodulin and human FKBP, expressed in E. coli were obtained from Sigma. […] The mixture was incubated for 2 hours at 0° C., the solution was aspirated from the wells, and each well was quickly washed with 300 uL of ice cold PBS-tween. Wells were broken apart, placed in scintillation vials with 10 mL of Scintiverse BD and bound radioactivity was quantitated by scintillation counting. […] to calculate the Kd.

[2] = biological target: T2, Human 3A4 P-450 (Homo sapiens, UniProt P08684); test: P450 stability assay with 3A4 P-450 supersomes; type: in vitro ADME; conditions: 20 μM FK species, 200 pmole P-450/mL, 37° C.
T2 construct: purchased Gentest Corporation (Woburn, Mass.) P207
Method: A mixture containing FK species and a NADPH regenerating system was pre-incubated at 37° C. for 10 minutes before the reaction was commenced by the addition of the P-450 supersomes. The final concentrations of the components were: 100 mM potassium phosphate, pH 7.4; 3.3 mM MgCl2; 3.3 mM glucose-6-phosphate; 1.3 mM NADP; 0.4 U/mL glucose-6-phosphate dehydrogenase; 200 pmole P-450/mL; and 20 μM FK species. Control reactions contained “mock” supersomes without 3A4 P-450 activity. Human 3A4 P-450+Reductase supersomes (cat #P207) and vector control “mock” supersomes without 3A4P-450 (cat #P201) were obtained from Gentest Corporation (Woburn, Mass.).
Following addition of supersomes or mock supersomes, reactions were terminated at 0 minutes (immediately upon addition of P-450) and 30 minutes by addition of acetonitrile containing 0.1% acetic acid to 20% final acetonitrile concentration, followed by freezing immediately on dry ice. For reactions containing the 13-desmethoxy-13-methyl-32-(2-hydroxyethylindolyl)-FK analog, an equal volume of MeOH was added following addition of acetonitrile and the samples were immediately frozen on dry ice. The samples were clarified by centrifugation at 13,000 rpm for 5 minutes at 4° C. in a micro centrifuge prior to HPLC analysis.
The following HPLC program was employed: Column =MetaChem 0.46×15 cm intersil C18 column (5 μm); Solvent A=0.1% HOAc in water; Solvent B=0.1 % HOAc in acetonitrile. Detection=UV (210 nm) and ELSD. Gradient: Equilibration with 20% B; injection (up to 1 ml), hold at 20% B for 5 minutes; linear gradient to 50% B in 5 minutes; linear gradient to 100% B in 20 minutes; to 20% B in 1 minute; hold at 20% B for 10 minutes to equilibrate.
There was no change in peak area after 30 minutes when the FK analogs were incubated with mock supersomes.

[3] = biological target: calcineurin (Bos taurus, UniProt P48452+P62942+P63099); test: Calcineurin phosphatase inhibition assay (FKBP-compound complex); type: biochemical; conditions: 15 nM calcineurin, 30 nM calmodulin, 1 uM phospho-RII peptide, 30° C.
Method: The catalytic subunit of protein kinase A was used to transfer the labeled phosphate from [γ-^32P]ATP to […] of the RII peptide. […] Fractions were collected and monitored by scintillation counting. […] The columns were prepared by resuspending the resin in water such that there was one volume of water above each volume of settled resin. The slurry (1 mL) was then pipetted into each column, followed by 10 mL of water. The bed volume was verified, then each column was washed with 1 mL 1 N NaOH, 2 mL 1 N HCl, and 4 mL water. Quenched reaction mixtures were applied to the columns, washed twice with 750 uL of water and the eluate was collected directly into scintillation vials. Scintiverse BD (15 mL) was added to each vial, and ^32PO4 was quantitated by scintillation counting. […] Following a 30 minute preincubation, reactions were initiated by addition of the phospho-RII peptide substrate to 1 uM and incubated at 30° C. Aliquots were removed at 3 and 35 minutes, quenched, and PO4 release was measured as described above.

[4] = test system: SH-SY5Y human neuroblastoma cells; test: Nerve growth (neurite length) assay; type: cell-based
Method: Table 9 summarizes the results of nerve growth as using SH-SY5Y human neuroblastoma cells according to Gold et al., Exp Neuro, 147(2): 269-87 (1997) which is incorporated herein by reference. The assay measures the mean neurite length in […] that were induced at 0.1 nM and 10 nM of the compound of interested after 96 or 168 hours.

[5] = cited from earlier work

In the case of CC[C@@H]1/C=C(\C)C[C@H](C)C[C@H](OC)[C@@H]2CC[C@@H](C)[C@@](O)(O2)C(=O)C(=O)N2CCCC[C@H]2C(=O)O[C@H](/C(C)=C/[C@@H]2CC[C@@H](O)[C@H](OC)C2)[C@H](C)[C@@H](O)CC1=O [13-desmethoxy-FK-520], the Kd [1] is reported as 0.4 nM and the “P450 % Stability (at 30 min)” value [2] is reported as 35%.

In the case of “32-[1-(2-Hydroxyethyl)-indol-5-yl]-13-desmethoxy-FK-520”, the Ki [3] is reported as < 15 nM and 22 nM, the Kd ([1]; competition with 0.5 μM [3H]FK-506, 2 hours at 0° C., Kd of [3H]FK-506 assumed to be 0.4 nM) is reported as 16.3 nM and 10.4 nM and the “P450 % Stability (at 30 min)” value [2] is reported as 72% and 77%.

For “18-ene-20-oxa-13-desmethoxy-13-methyl-FK-520”, the Neurite Length at 0.1 nM 96 h [4] was 144 µm, the Neurite Length at 0.1 nM 168 h [4] was 184 µm and the Neurite Length at 10 nM 96 h [4] was 104 µm. The Neurite Length at 10 nM 168 h [4] was 135 µm.

With CC[C@@H]1/C=C(\C)C[C@H](C)C[C@H](OC)[C@H]2O[C@@](O)(C(=O)C(=O)N3CCCC[C@H]3C(=O)O[C@H](/C(C)=C/[C@@H]3CC[C@@H](O)[C@H](OC)C3)[C@H](C)[C@@H](O)CC1=O)[C@H](C)C[C@@H]2OC [FK-520, ascomycin, reference compound] the Kd [1] was 0.4 nM and the “P450 % Stability (at 30 min)” value [2] was 46%.

Molecule CC[C@@H]1/C=C(\C)C(O)[C@H](C)C[C@H](OC)[C@H]2O[C@@](O)(C(=O)C(=O)N3CCCC[C@H]3C(=O)O[C@H](/C(C)=C/[C@@H]3CC[C@@H](O)[C@H](OC)C3)[C@H](C)[C@@H](O)CC1=O)[C@H](C)C[C@@H]2C (stereo partly drawn) [13-desmethoxy-13-methyl-18-hydroxyl-FK-520] has a Neurite Length at 0.1 nM 96 h [4] of 168 µm, a Neurite Length at 0.1 nM 168 h [4] of 191 µm and a Neurite Length at 10 nM 96 h [4] of 132 µm. The Neurite Length at 10 nM 168 h [4] was 165 µm and the Kd [1] was ~1 nM.

In the case of CC[C@@H]1/C=C(\C)C[C@H](C)C[C@H](OC)[C@H]2O[C@@](O)(C(=O)C(=O)N3CCCC[C@H]3C(=O)O[C@H](/C(C)=C/[C@@H]3CC[C@@H](O)[C@H](OC)C3)[C@H](C)[C@@H](O)CC1=O)[C@H](C)C[C@@H]2C [13-desmethoxy-13-methyl-FK-520], the Kd [1] is reported as 1.6 nM and the “P450 % Stability (at 30 min)” value [2] is reported as 26%.

For C=CC[C@@H]1/C=C(\C)C[C@H](C)C[C@H](OC)[C@H]2O[C@@](O)(C(=O)C(=O)N3CCCC[C@H]3C(=O)O[C@H](/C(C)=C/[C@@H]3CC[C@@H](O)[C@H](OC)C3)[C@H](C)[C@@H](O)CC1=O)[C@H](C)C[C@@H]2OC.O [FK-506, tacrolimus], the “excreted unchanged in urine” value ([5]; in vivo) is listed as “less than 1%”, the half-life for distribution ([5]; in vivo) is listed as 54 min and the “bioavailability with co-administration of ketoconazole” value ([5]; ketoconazole, a drug that inhibits P450 3A) is listed as “doubles”. The “mean bioavailability of the oral dosage form” value ([5]; oral, range 5 to 65%) was 27%.

“Nerve Growth Factor: protein neurotrophic molecule used as comparator in the neurite length assay” gave a Neurite Length at 0.1 nM 96 h [4] of 143 µm and a Neurite Length at 0.1 nM 168 h [4] of 169 µm.
